Columns and labels:
Assay type in all cases: cell-based
[1] = system: large intestine cancer cell strain HCT116 (p53 wildtype); experiment: Screening in cancer cell strains, cell survival rate with PrestoBlue; details: Day 5 after transfection with RNAiMAX, compared with miR-34a-5p
Protocol: (§1) The 349 types of aging induction miRNA (mirVana; Ambion) obtained from screening were transfected into various cancer cell strains (large intestine cancer cell strain HCT116 (p53 wildtype and p53 deletion), pancreatic cancer cell strains BxPC-3 and CFPAC-1, and tongue cancer cell strain HSC-4) with an auto dispenser Bravo (Agilent).
(§2) Transfection was carried out with the following protocol.
(§3) 1: To 70 μL of serum free medium (SFM) was added 0.35 μL of RNAiMAX (Invitrogen).
(§4) 2: The solution from 1 was added to a 96-well plate (μ-plate; ibidi) with Bravo.
(§5) 3: To 2 was added 0.7 μL of miRNA (Stock Conc. 200 nM) with Bravo, and this was mixed by pipetting.
(§6) 4: This was incubated at room temperature for 20 minutes.
(§7) 5: A cell suspension diluted to 3.5×10^4 cells/mL was dispensed at 70 μL each with Bravo.
(§8) 6: This was incubated at 37° C. under 5% CO2 condition.
(§9) Setting the day of transfection as Day 0, on Day 5 the cell survival rate was evaluated with PrestoBlue (Invitrogen). The operating protocol is shown below.
(§10) 1. The medium was exchanged to a medium comprising PrestoBlue diluted 20-folds, and this was incubated at 37° C. for 1 hour. 2. The fluorescence value (Ex/Em=560 nm/590 nm) was measured with Enspire (Perkin Elmer).
(§11) 3. The cell survival rate was determined by setting the fluorescence value obtained from the well with only the reagent as the background.

[2] = system: pancreatic cancer cell strain CFPAC-1; experiment: as above; details: CFPAC-1, Day 5 after transfection with RNAiMAX, compared with miR-34a-5p
Protocol: as §1, §2, §3, §4, §5, §6, §7, §8, §9, §10, §11

[3] = system: tongue cancer cell strain HSC-4; experiment: as above; details: HSC-4, Day 5 after transfection with RNAiMAX, compared with miR-34a-5p
Protocol: as §1, §2, §3, §4, §5, §6, §7, §8, §9, §10, §11

[4] = system: pancreatic cancer cell strain BxPC-3; experiment: as above; details: BxPC-3, Day 5 after transfection with RNAiMAX, compared with miR-34a-5p
Protocol: as §1, §2, §3, §4, §5, §6, §7, §8, §9, §10, §11

[5] = system: large intestine cancer cell strain HCT116 (p53 deletion); experiment: as above; details: Day 5 after transfection with RNAiMAX, compared with miR-34a-5p
Protocol: as §1, §2, §3, §4, §5, §6, §7, §8, §9, §10, §11

[6] = system: breast cancer stem cell strain (MDA-MB231-luc-D3H2LN cells); experiment: Cell growth inhibition, cell count after transfection; details: final concentration 12.5 nM, four days after transfection, FIG. 10 top
Protocol: miR-3140-3p was transfected in a highly metastatic cancer cell strain of breast cancer (MDA-MB231-luc-D3H2LN cells), and cell proliferation was observed. […] Transfection was carried out with the following protocol.
(§12) 1: To a 35 mm dish were added 500 μL of serum free medium (SFM) and 5 μL of RNAiMAX (Invitrogen).
2: To the solution from 1 was added 12.5 μL each of miR-Control or miR-3140-3p, miR-22-3p, and miR-34a-5p (stock conc. 2 μM) (final concentration 12.5 nM).
(§13) 3: This was incubated at room temperature for 20 minutes.
(§14) 4: 1.5 mL of a cell suspension diluted to 6.7×10^4 cells/mL was added to the 35 mm dish.
(§15) 5: This was incubated at 37° C. under 5% CO2 condition.
(§16) 6: The cells were counted four days after transfection.

[7] = system: malignant pleural mesothelioma cell EHMES-10; experiment: Calculation of IC50 value, cell survival with Cell Counting Kit 8; details: five days after transfection
Protocol: The IC50 value of miR-3140-3p was calculated with malignant pleural mesothelioma cell EHMES-10.
The protocol therefor is shown below.
1: To 25 μL of serum free medium (SFM) was added 0.25 μL of RNAiMAX (Invitrogen).
2: miR-Control and miR-3140-3p were serially diluted so that the final concentrations will be 40 nM, 20 nM, 10 nM, 5 nM, 1 nM, 500 pM, 100 pM, 50 pM, 10 pM, 5 pM, and 1 pM, and mixed with SFM/RNAiMAX complex.
as §13
4: 75 μL of each of cells at 6.7×10^4 cells/mL were added to each well.
as §15
6: Five days after transfection, the survival rates of cells were investigated with Cell Counting Kit 8 (DOJINDO). The protocol therefor is shown below.
(i) Cell Counting Kit was diluted 10-folds with a medium.
(ii) 200 μL of each of the diluted Cell Counting Kit was added to each well.
(iii) This was incubated at 37° C. under 5% CO2 condition for 1 hour.
(iv) The values at 450 nm/600 nm were measured with a plate reader.
Note that the same control RNA as that used in Experiment 7 was employed as the control.

[8] = system: uterine sarcoma cell strain MES-SA; experiment: Cell growth inhibition, cell count after transfection; details: final concentration 10 nM, four days after transfection, FIG. 8
Protocol: (§17) Among the above four miRNAs, miR-3140-3p which had particularly high cell growth inhibition effect was transfected in each of malignant pleural mesothelioma cell strains (MSTO-211H and EHMES-10), uterine sarcoma cell strain (MES-SA), and osteosarcoma cell strain (U2-OS), and cell proliferation was observed. […] Transfection was carried out with the following protocol.
as §12
(§18) 2: To the solution from 1 was added 1 μL each of miR-Control or miR-3140-3p, miR-22-3p, and miR-34a-5p (stock conc. 20 μM) (final concentration 10 nM).
as §13, §14, §15, §16

[9] = system: osteosarcoma cell strain U2-OS; experiment: as above; details: final concentration 10 nM, four days after transfection, FIG. 9
Protocol: as §17, §12, §18, §13, §14, §15, §16

[10] = system: malignant pleural mesothelioma cell strain EHMES-10; experiment: as above; details: EHMES-10, final concentration 10 nM, four days after transfection, FIG. 7
Protocol: as §17, §12, §18, §13, §14, §15, §16

[11] = system: malignant pleural mesothelioma cell strain MSTO-211H; experiment: as above; details: final concentration 10 nM, four days after transfection, FIG. 6
Protocol: as §17, §12, §18, §13, §14, §15, §16

miR-3140-3p: Mature-miRNA, AGCUUUUGGGAAUUCAGGUAGU (SEQ ID NO. 2) (listed as RNA, chemistry not given here; listed as Homo sapiens)
suppression of cell proliferation (cell survival rate, PrestoBlue) [1]: suppress cell proliferation more significantly than miR-34-5p
suppression of cell proliferation (cell survival rate, PrestoBlue) [2]: suppress cell proliferation more significantly than miR-34-5p
suppression of cell proliferation (cell survival rate, PrestoBlue) [3]: suppress cell proliferation more significantly than miR-34-5p
suppression of cell proliferation (cell survival rate, PrestoBlue) [4]: suppress cell proliferation more significantly than miR-34-5p
suppression of cell proliferation (cell survival rate, PrestoBlue) [5]: suppress cell proliferation more significantly than miR-34-5p
cell growth inhibition effect (cell count) [6]: extremely high cell growth inhibition effect
growth inhibition effect (survival rates of cells, Cell Counting Kit 8) ([7]; EHMES-10, 1 pM to 40 nM, FIG. 29): growth inhibition effect against malignant pleural mesothelioma cell strain EHMES-10 even at a very low concentration
IC50 ([7]; EHMES-10, final concentration, Cell Counting Kit 8): 0.57 nM
cell growth inhibition effect (cell count) [8]: extremely high cell growth inhibition effect compared to prior art miR-22-3p and miR-34a-5p
cell growth inhibition effect (cell count) [9]: extremely high cell growth inhibition effect compared to prior art miR-22-3p and miR-34a-5p
cell growth inhibition effect (cell count) [10]: extremely high cell growth inhibition effect compared to prior art miR-22-3p and miR-34a-5p
cell growth inhibition effect (cell count) [11]: extremely high cell growth inhibition effect compared to prior art miR-22-3p and miR-34a-5p

Source: patent US11311568B2, “Therapeutic pharmaceutical composition for cancer including miRNA” (Purmx Therapeutics, Inc., priority 2017, dated 2022)
